Here are results for twelve compounds from ChEMBL document CHEMBL5543147, “Discovery and Characterization of a Novel Cereblon-Recruiting PRC1 Bridged PROTAC Degrader” (J Med Chem, 2024).

Active and inactive are the calls of the source. The rule behind the calls is not given here. Where only a bound is given, the exact number is not on record here.

The subject of assay [1] is K562. Nature of the assay: Induction of PRC2 degradation in human K562 cells assessed as reduction of H3K27me3 chromatin mark at 0.1 to 10 uM incubated for 24 hrs by Western blotting analysis. Format: cell-based. The note with it: dose 0.1-10 µM. For orientation: A western blot detects proteins with antibodies after separation by electrophoresis.
Assay [2] deals with Protein cereblon/Polycomb complex protein BMI-1 (Homo sapiens, UniProt Q96SW2+P35226). Nature of the assay: PROTAC activity at […] in human K562 cells assessed as degradation of BMI1 protein expression at 0.1 to 10 uM incubated for 24 hrs by Western blotting analysis. The note with it: dose 0.1-10 µM. Type of assay: cell-based.
For assay [3], the system named is K562. Put plainly: Induction of PRC1 degradation in human K562 cells assessed as reduction of H2AK119ub chromatin mark at 0.1 to 10 uM incubated for 24 hrs by Western blotting analysis. Format: cell-based. The note with it: dose 0.1-10 µM.
Assay [4] deals with Protein cereblon/Polycomb protein EED (Homo sapiens, UniProt O75530+Q96SW2). Put plainly: PROTAC activity at CRBN/EED in human K562 cells assessed as degradation of EED protein expression at 0.1 to 10 uM incubated for 24 hrs by Western blotting analysis. Format: cell-based. The note with it: dose 0.1-10 µM.
For assay [5], the target named is T1, Protein cereblon/E3 ubiquitin-protein ligase RING2 (Homo sapiens, UniProt Q96SW2+Q99496). Put plainly: PROTAC activity at CRBN/RING1B in human K562 cells assessed as degradation of RING1B protein expression at 0.1 to 10 uM incubated for 24 hrs by Western blotting analysis. Type of assay: cell-based. The note with it: dose 0.1-10 µM.
Assay [6] has as its target Protein cereblon/Polycomb protein SUZ12 (Homo sapiens) (UniProt Q15022+Q96SW2). Put plainly: PROTAC activity at CRBN/SUZ12 in human K562 cells assessed as degradation of SUZ12 protein expression at 0.1 to 10 uM incubated for 24 hrs by Western blotting analysis. Type of assay: cell-based. The note with it: dose 0.1-10 µM.
In assay [7] the target is Protein cereblon/Histone-lysine N-methyltransferase EZH2 (Homo sapiens) (UniProt Q15910+Q96SW2). Nature of the assay: PROTAC activity at CRBN/EZH2 in human K562 cells assessed as degradation of EZH2 protein expression at 0.1 to 10 uM incubated for 24 hrs by Western blotting analysis. Format: cell-based. The note with it: dose 0.1-10 µM.
For assay [8], the target named is von Hippel-Lindau disease tumor suppressor/Histone-lysine N-methyltransferase EZH2 (Homo sapiens, UniProt Q15910+P40337). Put plainly: PROTAC activity at VHL/EZH2 in human KARPAS-422 cells assessed as degradation of EZH2 protein expression by Western blotting analysis. Format: cell-based.
Assay [9] addresses von Hippel-Lindau disease tumor suppressor/Polycomb protein EED (Homo sapiens, UniProt O75530+P40337). Put plainly: PROTAC activity at VHL/EED in human KARPAS-422 cells assessed as degradation of EED protein expression by Western blotting analysis. Type of assay: cell-based.
Assay [10] concerns K562. Nature of the assay: Induction of PRC2 degradation in human K562 cells assessed as reduction of H3K27me3 chromatin mark at 1 to 10 uM incubated for 24 hrs by Western blotting analysis. Format: cell-based. The note with it: dose 1-10 µM.
The test system of assay [11] is PC-3M. Put plainly: Induction of PRC1 degradation in human PC-3M cells assessed as reduction of H2AK119ub chromatin mark at 0.2 to 5 uM incubated for 24 hrs by Western blotting analysis. Format: cell-based. The note with it: dose 0.2-5 µM.
The test system of assay [12] is K562. Put plainly: Antiproliferative activity against human K562 cells assessed as increase in HoxA mRNA expression at 10 uM incubated for 24 hrs by RT-qPCR analysis. Format: functional, cell-based. Background: In qPCR the cycle at which signal appears reflects the starting amount.
The subject of assay [13] is MDA-MB-468. Nature of the assay: Induction of PRC2 degradation in human MDA-MB-468 cells assessed as reduction of H3K27me3 chromatin mark at 0.2 to 5 uM incubated for 24 hrs by Western blotting analysis. The note with it: dose 0.2-5 µM. Format: cell-based.
Assay [14] relates to K562. Put plainly: Antiproliferative activity against human K562 cells assessed as increase in HoxD mRNA expression at 10 uM incubated for 24 hrs by RT-qPCR analysis. Format: functional, cell-based.
The subject of assay [15] is K562. Put plainly: Antiproliferative activity against human K562 cells assessed as cell growth inhibition incubated for 7 days by WST-8 assay. Format: functional. The note with it: time 7.0 day. A general note: Formazan colour is commonly taken as a measure of viable cells.
Assay [16] relates to PC-3M. Put plainly: Induction of PRC2 degradation in human PC-3M cells assessed as reduction of H3K27me3 chromatin mark at 0.2 to 5 uM incubated for 24 hrs by Western blotting analysis. Type of assay: cell-based. The note with it: dose 0.2-5 µM.
Assay [17] deals with MDA-MB-468. Nature of the assay: Induction of PRC1 degradation in human MDA-MB-468 cells assessed as reduction of H2AK119ub chromatin mark at 0.2 to 5 uM incubated for 24 hrs by Western blotting analysis. Type of assay: cell-based. The note with it: dose 0.2-5 µM.
For assay [18], the target named is T2, von Hippel-Lindau disease tumor suppressor/Polycomb complex protein BMI-1 (Homo sapiens) (UniProt P40337+P35226). Nature of the assay: PROTAC activity at […] in human K562 cells assessed as degradation of BMI1 protein expression at 1 to 10 uM incubated for 24 hrs by Western blotting analysis. Format: cell-based. The note with it: dose 1-10 µM.
For assay [19], the target named is T1, Protein cereblon/E3 ubiquitin-protein ligase RING2. Nature of the assay: PROTAC activity at CRBN/RING1B in human 786-0 cells with defective VHL assessed as degradation of RING1B protein expression at 10 uM incubated for 24 hrs by Western blotting analysis. Type of assay: cell-based.
The target is the same in assay [20]. Nature of the assay: PROTAC activity at CRBN/RING1B in human K562 cells assessed as degradation of RING1B protein expression at 1 to 10 uM incubated for 24 hrs by Western blotting analysis. Type of assay: cell-based. The note with it: dose 1-10 µM.
The target of assay [21] is T2, von Hippel-Lindau disease tumor suppressor/Polycomb complex protein BMI-1 (Homo sapiens). Put plainly: PROTAC activity at […] in human 786-0 cells with defective VHL assessed as degradation of BMI1 protein expression at 10 uM incubated for 24 hrs by Western blotting analysis. Format: cell-based.
Assay [22] has as its system 786-0. Put plainly: Antiproliferative activity against human 786-0 cells assessed as inhibition of cell growth at 0.5 to 30 uM incubated for 7 days by WST-8 assay. Type of assay: functional, cell-based. The note with it: dose 0.5-30 µM, time 7.0 day.
The target of the next assay is Polycomb protein EED (Homo sapiens, UniProt O75530). Put plainly: Binding affinity to EED (75 to 441 residues) (unknown origin) expressed in Escherichia coli BL21 (DE3) assessed as dissociation constant by isothermal titration calorimetry.
In assay [23] the test system is 786-0. Put plainly: Induction of PRC1 degradation in human 786-0 cells with defective VHL assessed as reduction of H2AK119ub chromatin mark at 10 uM incubated for 24 hrs by Western blotting analysis. Type of assay: cell-based.
Assay [24] concerns 786-0. Put plainly: Induction of PRC2 degradation in human 786-0 cells with defective VHL assessed as reduction of H3K27me3 chromatin mark at 10 uM incubated for 24 hrs by Western blotting analysis. Format: cell-based.
Assay [25] relates to K562. Nature of the assay: Induction of PRC1 degradation in human K562 cells assessed as reduction of H2AK119ub chromatin mark at 1 to 10 uM incubated for 24 hrs by Western blotting analysis. The note with it: dose 1-10 µM. Type of assay: cell-based.

Sequence of Protein cereblon/Histone-lysine N-methyltransferase EZH2 (Homo sapiens) (Q15910 whole entry, looked up): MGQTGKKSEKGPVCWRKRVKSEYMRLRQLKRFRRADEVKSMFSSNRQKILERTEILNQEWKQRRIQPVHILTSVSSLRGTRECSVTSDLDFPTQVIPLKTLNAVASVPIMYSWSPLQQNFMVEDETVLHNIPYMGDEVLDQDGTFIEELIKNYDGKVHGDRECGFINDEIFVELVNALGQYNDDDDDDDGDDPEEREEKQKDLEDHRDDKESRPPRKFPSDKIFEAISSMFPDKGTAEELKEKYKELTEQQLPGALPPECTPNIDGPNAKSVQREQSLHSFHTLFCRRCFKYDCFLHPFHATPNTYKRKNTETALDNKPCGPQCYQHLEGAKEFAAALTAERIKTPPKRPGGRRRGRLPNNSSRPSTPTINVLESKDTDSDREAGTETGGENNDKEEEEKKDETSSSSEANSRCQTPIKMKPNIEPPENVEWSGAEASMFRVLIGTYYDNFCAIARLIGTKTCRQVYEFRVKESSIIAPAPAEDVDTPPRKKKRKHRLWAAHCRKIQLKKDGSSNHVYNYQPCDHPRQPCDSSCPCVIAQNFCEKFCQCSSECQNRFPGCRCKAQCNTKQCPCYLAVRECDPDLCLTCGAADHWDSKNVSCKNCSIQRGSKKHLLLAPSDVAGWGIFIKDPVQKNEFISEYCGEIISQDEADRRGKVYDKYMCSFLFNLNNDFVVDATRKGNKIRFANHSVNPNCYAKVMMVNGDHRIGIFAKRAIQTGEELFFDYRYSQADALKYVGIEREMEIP
Sequence of Protein cereblon/Histone-lysine N-methyltransferase EZH2 (Homo sapiens) (Q96SW2 whole entry, looked up): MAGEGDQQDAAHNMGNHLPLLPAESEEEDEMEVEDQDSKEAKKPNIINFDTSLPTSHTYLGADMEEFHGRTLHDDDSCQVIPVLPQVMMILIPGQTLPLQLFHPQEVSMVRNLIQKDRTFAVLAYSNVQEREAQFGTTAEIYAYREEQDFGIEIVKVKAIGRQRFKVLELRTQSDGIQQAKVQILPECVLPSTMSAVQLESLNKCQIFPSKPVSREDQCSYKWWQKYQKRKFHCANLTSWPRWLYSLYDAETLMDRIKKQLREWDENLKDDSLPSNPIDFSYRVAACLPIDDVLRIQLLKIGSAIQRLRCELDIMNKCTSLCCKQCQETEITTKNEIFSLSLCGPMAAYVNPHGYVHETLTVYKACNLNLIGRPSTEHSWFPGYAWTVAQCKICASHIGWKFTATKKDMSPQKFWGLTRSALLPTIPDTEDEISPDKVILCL
Sequence of Protein cereblon/Polycomb protein SUZ12 (Homo sapiens) (Q15022 whole entry, looked up): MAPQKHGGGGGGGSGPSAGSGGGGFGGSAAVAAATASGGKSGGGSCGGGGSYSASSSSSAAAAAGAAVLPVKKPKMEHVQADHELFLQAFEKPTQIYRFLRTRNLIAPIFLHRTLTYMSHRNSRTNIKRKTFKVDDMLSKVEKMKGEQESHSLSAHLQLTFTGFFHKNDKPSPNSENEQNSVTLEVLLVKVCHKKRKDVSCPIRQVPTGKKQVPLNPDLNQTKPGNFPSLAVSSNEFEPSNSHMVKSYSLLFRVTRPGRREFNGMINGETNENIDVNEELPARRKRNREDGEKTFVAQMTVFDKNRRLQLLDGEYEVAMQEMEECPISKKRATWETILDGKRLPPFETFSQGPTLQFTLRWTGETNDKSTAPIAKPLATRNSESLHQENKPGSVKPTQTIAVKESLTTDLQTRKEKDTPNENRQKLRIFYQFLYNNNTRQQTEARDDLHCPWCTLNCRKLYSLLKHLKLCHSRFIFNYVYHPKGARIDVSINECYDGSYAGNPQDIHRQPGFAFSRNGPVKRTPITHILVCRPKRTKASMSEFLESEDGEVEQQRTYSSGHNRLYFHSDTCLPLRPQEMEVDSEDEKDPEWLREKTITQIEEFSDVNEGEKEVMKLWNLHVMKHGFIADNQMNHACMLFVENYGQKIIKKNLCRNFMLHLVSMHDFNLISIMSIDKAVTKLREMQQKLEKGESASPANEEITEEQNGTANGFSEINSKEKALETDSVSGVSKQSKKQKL
Sequence of Protein cereblon/Polycomb protein SUZ12 (Homo sapiens) (Q96SW2 whole entry, looked up): as the sequence (Q96SW2 whole entry, looked up) above
T2 sequence (P35226 whole entry, looked up): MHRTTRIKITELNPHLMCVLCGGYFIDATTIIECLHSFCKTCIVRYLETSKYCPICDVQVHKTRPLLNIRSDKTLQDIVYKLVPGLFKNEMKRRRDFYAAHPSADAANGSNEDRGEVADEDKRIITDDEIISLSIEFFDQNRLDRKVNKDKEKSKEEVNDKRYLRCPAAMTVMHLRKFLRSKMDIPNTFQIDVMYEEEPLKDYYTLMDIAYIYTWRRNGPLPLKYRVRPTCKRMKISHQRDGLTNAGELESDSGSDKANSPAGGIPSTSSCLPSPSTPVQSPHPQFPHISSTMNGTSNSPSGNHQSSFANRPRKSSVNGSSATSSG
T2 sequence (P40337 whole entry, looked up): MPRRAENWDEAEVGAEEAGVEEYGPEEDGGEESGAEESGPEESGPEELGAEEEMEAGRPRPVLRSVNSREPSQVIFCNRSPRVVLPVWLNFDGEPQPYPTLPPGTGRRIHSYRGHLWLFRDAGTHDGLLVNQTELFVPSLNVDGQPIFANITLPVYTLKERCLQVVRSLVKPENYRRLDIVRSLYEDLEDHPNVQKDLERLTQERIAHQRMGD
Sequence of Protein cereblon/Polycomb complex protein BMI-1 (P35226 whole entry, looked up): as the sequence (P35226 whole entry, looked up) above
Sequence of Protein cereblon/Polycomb complex protein BMI-1 (Q96SW2 whole entry, looked up): as the sequence (Q96SW2 whole entry, looked up) above
T1 sequence (Q96SW2 whole entry): as the sequence (Q96SW2 whole entry, looked up) above
T1 sequence (Q99496 2-336 partner limits assumed): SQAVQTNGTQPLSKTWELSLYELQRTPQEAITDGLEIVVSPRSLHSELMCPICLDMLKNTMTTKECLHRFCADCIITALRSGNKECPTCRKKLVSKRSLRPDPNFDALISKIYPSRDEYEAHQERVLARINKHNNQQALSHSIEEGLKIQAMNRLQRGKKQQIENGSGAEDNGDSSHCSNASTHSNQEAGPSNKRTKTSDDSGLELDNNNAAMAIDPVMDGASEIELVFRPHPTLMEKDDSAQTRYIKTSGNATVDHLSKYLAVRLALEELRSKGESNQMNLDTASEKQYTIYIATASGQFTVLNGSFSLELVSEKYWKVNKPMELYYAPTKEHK
Sequence of Protein cereblon/Polycomb protein EED (O75530 2-441 limits assumed): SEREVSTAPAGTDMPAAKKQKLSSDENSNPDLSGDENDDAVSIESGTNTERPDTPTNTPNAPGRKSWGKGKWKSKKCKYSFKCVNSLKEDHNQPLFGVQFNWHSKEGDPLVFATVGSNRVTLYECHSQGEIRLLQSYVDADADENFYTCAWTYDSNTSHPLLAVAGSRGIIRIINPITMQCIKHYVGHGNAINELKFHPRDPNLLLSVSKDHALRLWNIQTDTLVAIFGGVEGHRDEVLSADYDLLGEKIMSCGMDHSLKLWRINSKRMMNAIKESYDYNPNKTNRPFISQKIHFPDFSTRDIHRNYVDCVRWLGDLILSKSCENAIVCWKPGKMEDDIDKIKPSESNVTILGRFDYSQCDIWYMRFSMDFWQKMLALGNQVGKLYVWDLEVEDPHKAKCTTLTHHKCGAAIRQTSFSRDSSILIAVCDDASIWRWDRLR
Sequence of Protein cereblon/Polycomb protein EED (Q96SW2 whole entry partner): as the sequence (Q96SW2 whole entry, looked up) above
Sequence of von Hippel-Lindau disease tumor suppressor/Histone-lysine N-methyltransferase EZH2 (Q15910 whole entry): as the sequence (Q15910 whole entry, looked up) above
Sequence of von Hippel-Lindau disease tumor suppressor/Histone-lysine N-methyltransferase EZH2 (P40337 whole entry): as the sequence (P40337 whole entry, looked up) above
Sequence of Polycomb protein EED (O75530 whole entry, the tested form may be a part): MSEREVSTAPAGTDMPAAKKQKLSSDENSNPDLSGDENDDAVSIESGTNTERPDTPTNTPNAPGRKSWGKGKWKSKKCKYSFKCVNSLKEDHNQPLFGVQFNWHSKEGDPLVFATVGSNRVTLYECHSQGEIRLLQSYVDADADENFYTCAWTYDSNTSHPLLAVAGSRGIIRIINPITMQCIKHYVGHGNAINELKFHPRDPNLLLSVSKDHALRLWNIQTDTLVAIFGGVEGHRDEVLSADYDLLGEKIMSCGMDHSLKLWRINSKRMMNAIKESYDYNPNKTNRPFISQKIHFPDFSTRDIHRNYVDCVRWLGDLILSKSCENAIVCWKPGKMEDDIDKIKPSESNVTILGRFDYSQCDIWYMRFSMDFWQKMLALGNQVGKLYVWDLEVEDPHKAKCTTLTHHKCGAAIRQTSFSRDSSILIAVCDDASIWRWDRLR
Sequence of von Hippel-Lindau disease tumor suppressor/Polycomb protein EED (O75530 whole entry): as the sequence (O75530 whole entry, the tested form may be a part) above
Sequence of von Hippel-Lindau disease tumor suppressor/Polycomb protein EED (P40337 whole entry): as the sequence (P40337 whole entry, looked up) above

For the compound `O=C(CCCCCNc1cccc2c1C(=O)N(C1CCC(=O)NC1=O)C2=O)NCCCCN1CCN(c2ccc(-c3cnc(NCc4ccco4)n4cnnc34)cc2)CC1` (stereo unspecified), the result (in the assay on K562 [1]; in assay [2]; with K562 [3]; in assay [4]; in [5]; in assay [6]) was inactive. The outcome in [7] was inactive.

Regarding `O=C(CCOCCOCCOCCNc1cccc2c1C(=O)N(C1CCC(=O)NC1=O)C2=O)NCCCCN1CCN(c2ccc(-c3cnc(NCc4ccco4)n4cnnc34)cc2)CC1` (stereo unspecified), the outcome (with K562 [1]; in assay [2]; in the assay on K562 [3]; in [4]; in assay [5]; in assay [6]) was inactive. Besides, the result in [7] was inactive.

A word on the DC50: it is the midpoint of the concentration-degradation curve. For the compound `Cc1nc(CCC(=O)NCCCC(=O)N[C@H](C(=O)N2C[C@H](O)C[C@H]2C(=O)NCc2ccc(-c3scnc3C)cc2)C(C)(C)C)ccc1-c1cnc(NCc2c(F)ccc3c2CCO3)n2cnnc12`, the DC50 is below 1000 nM in assay [8] and below 120 nM in [9].

Turning to `O=C(CCOCCNc1cccc2c1C(=O)N(C1CCC(=O)NC1=O)C2=O)NCCCCN1CCN(c2ccc(-c3cnc(NCc4ccco4)n4cnnc34)cc2)CC1` (stereo unspecified), the outcome (in the assay with K562 [1]; in assay [2]; in the assay with K562 [3]; in assay [4]; in assay [5]; in [6]) was inactive. Moreover, in [7], the outcome was inactive.

Turning to `O=C(CCCCNc1cccc2c1C(=O)N(C1CCC(=O)NC1=O)C2=O)NCCCCN1CCN(c2ccc(-c3cnc(NCc4ccco4)n4cnnc34)cc2)CC1` (stereo unspecified), the outcome (with K562 [1]; in [2]; with K562 [3]; in assay [4]; in [5]; in assay [6]) was inactive. Moreover, the outcome in [7] was inactive.

Regarding `O=C(CCCNc1cccc2c1C(=O)N(C1CCC(=O)NC1=O)C2=O)NCCCCN1CCN(c2ccc(-c3cnc(NCc4ccco4)n4cnnc34)cc2)CC1` (stereo unspecified), the outcome (with K562 [1]; in assay [2]; in the assay on K562 [3]; in assay [4]; in [5]; in assay [6]) was inactive. Moreover, the result in assay [7] was inactive.

Consider `O=C(CCOCCOCCNc1cccc2c1C(=O)N(C1CCC(=O)NC1=O)C2=O)NCCCCN1CCN(c2ccc(-c3cnc(NCc4ccco4)n4cnnc34)cc2)CC1` (stereo unspecified), for which the result (in the assay with K562 [1]; in assay [4]; in assay [6]; in assay [7]) was Active. Further, the result (in assay [2]; in the assay on K562 [3]; in assay [5]) was inactive.

Consider `O=C(CCOCCOCCOCCOCCNc1cccc2c1C(=O)N(C1CCC(=O)NC1=O)C2=O)NCCCCN1CCN(c2ccc(-c3cnc(NCc4ccco4)n4cnnc34)cc2)CC1` (stereo unspecified), for which the result (with K562 [1]; in assay [2]; in the assay with K562 [3]; in assay [4]; in [5]; in [6]) was inactive. Moreover, the result in [7] was inactive.

Regarding `CS(=O)(=O)c1ccc(-c2cnc(NCc3ccco3)n3cnnc23)cc1`, the result in the assay with K562 [10], in the assay on MDA-MB-468 [13] and in the assay with PC-3M [16] was Active. Besides, the result (with PC-3M [11]; in the assay on K562 [12]; in the assay on K562 [14]; in the assay on K562 [15]; in the assay on MDA-MB-468 [17]; in [18]) was inactive. For the same compound, the outcome in assay [19], in assay [20] and in assay [21] was inactive.

As usually defined, the Kd is the concentration at which binding is half-saturated. Regarding `Cc1ncsc1-c1ccc(CNC(=O)[C@@H]2C[C@@H](O)CN2C(=O)[C@@H](NC(=O)CCCCCCNC(=O)CCCCN2CCN(c3ccc(-c4cnc(NCc5ccco5)n5cnnc45)cc3)CC2)C(C)(C)C)cc1`, the result (with 786-0 [22]; in [19]; in assay [21]) was inactive. Further, the Kd on Polycomb protein EED came out at 3000 nM. For the same compound, the result in the assay with 786-0 [23] and with 786-0 [24] was Active.

As to `Cc1ncsc1-c1ccc(CNC(=O)[C@@H]2C[C@@H](O)CN2C(=O)[C@@H](NC(=O)CCCNC(=O)c2ccc(-c3cnc(NCc4ccco4)n4cnnc34)cc2)C(C)(C)C)cc1`, the result in the assay on K562 [10] was Active. The result (in the assay on K562 [15]; with K562 [25]; in assay [18]; in [20]) was inactive.

Take `O=C(CCNc1cccc2c1C(=O)N(C1CCC(=O)NC1=O)C2=O)NCCCCN1CCN(c2ccc(-c3cnc(NCc4ccco4)n4cnnc34)cc2)CC1` (stereo unspecified): the outcome (in the assay on K562 [1]; in assay [2]; with K562 [3]; in [4]; in assay [5]; in assay [6]) was inactive. In addition, the outcome in [7] was inactive.
